Results taken from ChEMBL document CHEMBL5338809, “Fragment-Based Discovery of Azocyclic Alkyl Naphthalenesulfonamides as Keap1-Nrf2 Inhibitors for Acute Lung Injury Treatment” (J Med Chem, 2023).
Calls of active or inactive are those of the source. The rule behind the calls is not given here.

Tests used:
[1] = Cytotoxicity against mouse peritoneal macrophages assessed as reduction in cell viability incubated for 24 hrs by Cell titer-blue assay; format: toxicity, cell-based, Peritoneal macrophage
Peritoneal macrophage [2] = assay: Antiinflammatory activity in mouse peritoneal macrophages assessed as fold reduction in LPS-induced TNFalpha level at 10 uM incubated for 4 hrs by ELISA method; format: functional
[3] = biological target: Keap1/Nrf2 (Homo sapiens) (UniProt Q16236+Q14145); assay: Binding affinity to human Keap1-Nrf2 protein-protein interaction assessed as dissociation constant (Kd2) incubated for 60 mins by fluorescent polarization assay
Keap1/Nrf2 (Homo sapiens), sequence (Q14145 whole entry, looked up): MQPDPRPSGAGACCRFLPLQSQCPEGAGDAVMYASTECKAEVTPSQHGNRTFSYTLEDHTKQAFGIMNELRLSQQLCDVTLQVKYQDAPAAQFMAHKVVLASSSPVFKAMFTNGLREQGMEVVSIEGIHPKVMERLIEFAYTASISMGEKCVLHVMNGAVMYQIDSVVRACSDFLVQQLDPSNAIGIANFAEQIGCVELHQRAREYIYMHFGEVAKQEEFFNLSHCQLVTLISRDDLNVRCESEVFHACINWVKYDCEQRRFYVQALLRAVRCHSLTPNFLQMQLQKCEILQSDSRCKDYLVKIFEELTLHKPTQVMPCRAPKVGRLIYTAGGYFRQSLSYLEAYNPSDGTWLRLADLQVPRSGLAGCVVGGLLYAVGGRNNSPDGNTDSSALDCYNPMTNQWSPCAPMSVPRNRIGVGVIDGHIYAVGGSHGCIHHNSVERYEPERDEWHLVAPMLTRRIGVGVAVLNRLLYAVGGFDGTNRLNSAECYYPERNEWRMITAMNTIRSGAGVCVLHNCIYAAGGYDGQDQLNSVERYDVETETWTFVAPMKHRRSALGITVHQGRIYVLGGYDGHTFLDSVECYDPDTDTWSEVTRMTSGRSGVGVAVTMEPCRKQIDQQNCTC
Keap1/Nrf2 (Homo sapiens), sequence (Q16236 whole entry, looked up): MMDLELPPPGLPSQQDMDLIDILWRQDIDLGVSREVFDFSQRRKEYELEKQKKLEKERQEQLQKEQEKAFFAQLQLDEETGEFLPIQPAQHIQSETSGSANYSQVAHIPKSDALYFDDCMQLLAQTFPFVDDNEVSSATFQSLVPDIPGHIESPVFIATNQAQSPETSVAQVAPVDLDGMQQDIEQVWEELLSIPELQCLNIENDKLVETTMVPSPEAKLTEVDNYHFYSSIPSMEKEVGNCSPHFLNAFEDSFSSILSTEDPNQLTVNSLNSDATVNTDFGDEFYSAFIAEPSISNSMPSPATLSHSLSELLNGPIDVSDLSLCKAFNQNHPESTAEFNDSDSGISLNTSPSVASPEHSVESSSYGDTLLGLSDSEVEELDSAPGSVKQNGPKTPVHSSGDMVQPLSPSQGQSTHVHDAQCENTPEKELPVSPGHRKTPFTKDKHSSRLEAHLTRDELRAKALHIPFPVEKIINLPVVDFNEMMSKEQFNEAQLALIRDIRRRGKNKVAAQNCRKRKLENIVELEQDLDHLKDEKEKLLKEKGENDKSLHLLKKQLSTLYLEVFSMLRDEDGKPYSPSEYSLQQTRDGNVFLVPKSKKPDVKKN

Peritoneal macrophage [4] = assay: Antiinflammatory activity in mouse peritoneal macrophages assessed as reduction in LPS-induced IL6 level at 10 uM incubated for 4 hrs by ELISA method; format: functional, cell-based
[5] = Aqueous solubility of the compound in PBS at pH 7 at 2 mg incubated for 24 hrs by HPLC-UV analysis; format: physicochemical
[6] = Aqueous solubility of the compound in PBS at pH 7.4 at 2 mg incubated for 24 hrs by HPLC-UV analysis; format: physicochemical
[7] = Aqueous solubility of the compound in PBS at pH 2 at 2 mg incubated for 24 hrs by HPLC-UV analysis; format: physicochemical

| K [3] [nM] | solubility at 24 h [5] [µg/mL] | solubility at 24 h [6] [µg/mL] | solubility at 24 h [7] [µg/mL] | SMILES | CC50 at 24 h [1] [µM] | fold change (FC) (Peritoneal macrophage [2]) | Activity (Peritoneal macrophage [4]) |
| --- | --- | --- | --- | --- | --- | --- | --- |
| 270 |  |  |  | COc1ccc(S(=O)(=O)N(CC(N)=O)c2ccc(N(CC(N)=O)S(=O)(=O)c3ccc(NC(=O)[C@@H]4CCCNC4)cc3)c3ccccc23)cc1 | > 100 | <=0.5 | Active |
| 810 |  |  |  | COc1ccc(S(=O)(=O)N(CC(N)=O)c2ccc(N(CC(N)=O)S(=O)(=O)c3ccc(NC(=O)[C@H](N)C(C)C)cc3)c3ccccc23)cc1 | > 100 | <=0.5 |  |
| 400 |  |  |  | COc1ccc(S(=O)(=O)N(CC(N)=O)c2ccc(N(CC(N)=O)S(=O)(=O)c3ccc(NC(=O)[C@@H](N)C(C)C)cc3)c3ccccc23)cc1 | > 100 | <=0.5 |  |
| 820 |  |  |  | COc1ccc(S(=O)(=O)N(CC(N)=O)c2ccc(N(CC(N)=O)S(=O)(=O)c3ccc(NC(=O)[C@@H](N)Cc4ccccc4)cc3)c3ccccc23)cc1 | > 100 | <=0.5 |  |
| 250 |  |  |  | CNCC(=O)Nc1ccc(S(=O)(=O)N(CC(N)=O)c2ccc(N(CC(N)=O)S(=O)(=O)c3ccc(OC)cc3)c3ccccc23)cc1 | > 100 | <=0.5 | Active |
| 240 |  |  |  | COc1ccc(S(=O)(=O)N(CC(N)=O)c2ccc(N(CC(N)=O)S(=O)(=O)c3ccc(NC(=O)[C@H](C)N)cc3)c3ccccc23)cc1 | > 100 | <=0.5 | Active |
| 590 |  |  |  | CCC[C@@H](N)C(=O)Nc1ccc(S(=O)(=O)N(CC(N)=O)c2ccc(N(CC(N)=O)S(=O)(=O)c3ccc(OC)cc3)c3ccccc23)cc1 | > 100 | <=0.5 |  |
| 230 |  |  |  | COc1ccc(S(=O)(=O)N(CC(N)=O)c2ccc(N(CC(N)=O)S(=O)(=O)c3ccc(NC(=O)[C@@H](C)N)cc3)c3ccccc23)cc1 | > 100 | <=0.5 | Active |
|  | 162 | 160 | 311 | CC(=O)O.COc1ccc(S(=O)(=O)N(CC(N)=O)c2ccc(N(CC(N)=O)S(=O)(=O)c3ccc(NC(=O)[C@H]4CCN4)cc3)c3ccccc23)cc1 |  |  |  |
| 250 |  |  |  | COc1ccc(S(=O)(=O)N(CC(N)=O)c2ccc(N(CC(N)=O)S(=O)(=O)c3ccc(NC(=O)[C@H]4CCNC4)cc3)c3ccccc23)cc1 | > 100 | <=0.5 | Active |
|  | 484 | 283 | 1170 | COc1ccc(S(=O)(=O)N(CC(N)=O)c2ccc(N(CC(N)=O)S(=O)(=O)c3ccc(NC(=O)[C@H]4CCN4)cc3)c3ccccc23)cc1.Cl |  |  |  |
|  | 32.3 | 34.7 | 46.3 | COc1ccc(S(=O)(=O)N(CC(N)=O)c2ccc(N(CC(N)=O)S(=O)(=O)c3ccc(NC(=O)[C@H]4CCN4)cc3)c3ccccc23)cc1.O=C(O)/C=C\C(=O)O |  |  |  |
| 400 |  |  |  | COc1ccc(S(=O)(=O)N(CC(N)=O)c2ccc(N(CC(N)=O)S(=O)(=O)c3ccc(NC(=O)[C@H]4CCCNC4)cc3)c3ccccc23)cc1 | > 100 | <=0.5 |  |
| 530 |  |  |  | CC[C@H](N)C(=O)Nc1ccc(S(=O)(=O)N(CC(N)=O)c2ccc(N(CC(N)=O)S(=O)(=O)c3ccc(OC)cc3)c3ccccc23)cc1 | > 100 | <=0.5 |  |
| 650 |  |  |  | COc1ccc(S(=O)(=O)N(CC(N)=O)c2ccc(N(CC(N)=O)S(=O)(=O)c3ccc(NC(=O)[C@@H]4CCN4)cc3)c3ccccc23)cc1 | > 100 | <=0.5 |  |
| 440 |  |  |  | COc1ccc(S(=O)(=O)N(CC(N)=O)c2ccc(N(CC(N)=O)S(=O)(=O)c3ccc(NC(=O)[C@@H](N)CSC)cc3)c3ccccc23)cc1 | > 100 | <=0.5 |  |
| 440 |  |  |  | COc1ccc(S(=O)(=O)N(CC(N)=O)c2ccc(N(CC(N)=O)S(=O)(=O)c3ccc(NC(=O)CCN)cc3)c3ccccc23)cc1 | > 100 | <=0.5 |  |
| 260 |  |  |  | COc1ccc(S(=O)(=O)N(CC(N)=O)c2ccc(N(CC(N)=O)S(=O)(=O)c3ccc(NC(=O)C4CCN4)cc3)c3ccccc23)cc1 (centres undefined) | > 100 | <=0.5 | Active |

The remaining lines, values behind:

| SMILES | K [3] [nM] | solubility at 24 h [5] [µg/mL] | solubility at 24 h [6] [µg/mL] | solubility at 24 h [7] [µg/mL] | CC50 at 24 h [1] [µM] | fold change (FC) (Peritoneal macrophage [2]) | Activity (Peritoneal macrophage [4]) |
| --- | --- | --- | --- | --- | --- | --- | --- |
| COc1ccc(S(=O)(=O)N(CC(N)=O)c2ccc(N(CC(N)=O)S(=O)(=O)c3ccc(NC(=O)[C@H]4CCCN4)cc3)c3ccccc23)cc1 | 300 |  |  |  | > 100 | <=0.5 | Active |
| COc1ccc(S(=O)(=O)N(CC(N)=O)c2ccc(N(CC(N)=O)S(=O)(=O)c3ccc(NC(=O)CCCCN)cc3)c3ccccc23)cc1 | 270 |  |  |  | > 100 | <=0.5 |  |
| CC[C@@H](N)C(=O)Nc1ccc(S(=O)(=O)N(CC(N)=O)c2ccc(N(CC(N)=O)S(=O)(=O)c3ccc(OC)cc3)c3ccccc23)cc1 | 320 |  |  |  | > 100 | <=0.5 | Active |
| Br.COc1ccc(S(=O)(=O)N(CC(N)=O)c2ccc(N(CC(N)=O)S(=O)(=O)c3ccc(NC(=O)[C@H]4CCN4)cc3)c3ccccc23)cc1 |  | 256 | 137 | 672 |  |  |  |
| COc1ccc(S(=O)(=O)N(CC(N)=O)c2ccc(N(CC(N)=O)S(=O)(=O)c3ccc(NC(=O)[C@H]4CCN4)cc3)c3ccccc23)cc1.O=C(O)C(F)(F)F |  | 292 | 275 | 423 |  |  |  |
| COCC(=O)Nc1ccc(S(=O)(=O)N(CC(N)=O)c2ccc(N(CC(N)=O)S(=O)(=O)c3ccc(OC)cc3)c3ccccc23)cc1 | 550 |  |  |  | > 100 | <=0.5 |  |
| COc1ccc(S(=O)(=O)N(CC(N)=O)c2ccc(N(CC(N)=O)S(=O)(=O)c3ccc(NC(=O)[C@@H]4CCNC4)cc3)c3ccccc23)cc1 | 240 |  |  |  | > 100 | <=0.5 | Active |
| COc1ccc(S(=O)(=O)N(CC(N)=O)c2ccc(N(CC(N)=O)S(=O)(=O)c3ccc(NC(=O)CCCN)cc3)c3ccccc23)cc1 | 630 |  |  |  | > 100 | <=0.5 |  |
| COC[C@H](N)C(=O)Nc1ccc(S(=O)(=O)N(CC(N)=O)c2ccc(N(CC(N)=O)S(=O)(=O)c3ccc(OC)cc3)c3ccccc23)cc1 | 330 |  |  |  | > 100 | <=0.5 | Active |
| COc1ccc(S(=O)(=O)N(CC(N)=O)c2ccc(N(CC(N)=O)S(=O)(=O)c3ccc(NC(=O)CN)cc3)c3ccccc23)cc1 | 250 |  |  |  | > 100 | <=0.5 |  |
| COc1ccc(S(=O)(=O)N(CC(N)=O)c2ccc(N(CC(N)=O)S(=O)(=O)c3ccc(NC(=O)C4CCCNC4)cc3)c3ccccc23)cc1 (centres undefined) | 430 |  |  |  | > 100 | <=0.5 |  |
| COc1ccc(S(=O)(=O)N(CC(N)=O)c2ccc(N(CC(N)=O)S(=O)(=O)c3ccc(NC(=O)[C@H]4CCN4)cc3)c3ccccc23)cc1.O=C(O)CCC(=O)O |  | 60.6 | 65.6 | 145 |  |  |  |
| COc1ccc(S(=O)(=O)N(CC(N)=O)c2ccc(N(CC(N)=O)S(=O)(=O)c3ccc(NC(=O)[C@@H]4CCCN4)cc3)c3ccccc23)cc1 | 270 |  |  |  | > 100 | <=0.5 | Active |
| COc1ccc(S(=O)(=O)N(CC(N)=O)c2ccc(N(CC(N)=O)S(=O)(=O)c3ccc(NC(=O)[C@H](N)Cc4ccccc4)cc3)c3ccccc23)cc1 | 1170 |  |  |  | > 100 | <=0.5 |  |
| COC[C@@H](N)C(=O)Nc1ccc(S(=O)(=O)N(CC(N)=O)c2ccc(N(CC(N)=O)S(=O)(=O)c3ccc(OC)cc3)c3ccccc23)cc1 | 280 |  |  |  | > 100 | <=0.5 |  |
| COc1ccc(S(=O)(=O)N(CC(N)=O)c2ccc(N(CC(N)=O)S(=O)(=O)c3ccc(NC(=O)C4CCNC4)cc3)c3ccccc23)cc1 (centres undefined) | 280 |  |  |  | > 100 | <=0.5 | Active |
